From US8314068B2, “P2X7 inhibition of epithelial cancers and papillomas” (University Hospitals of Cleveland, priority 2009, dated 2012)

Experiments:
HeLa cells = experiment: Apoptosis in HeLa cells; assay type: cell-based, human
[1] = test system: human normal keratinocytes; experiment: Apoptosis in cultured human normal keratinocytes; assay type: cell-based; conditions: BzATP 100 μM with ATP 1 μM or 250 μM
Source text: Primary cultures of human normal keratinocytes were generated from discarded foreskins. […] Apoptosis may be quantified in terms of percent solubilized DNA (Wang et al, 2004a), or by using the commercial cell-death detection ELISA kit (Roche Applied Science, Nutley, N.J.) (Feng et al, 2006).

WT-MDCK cells = experiment: Apoptosis in wild-type MDCK cells lacking P2X7; assay type: cell-based, canine; conditions: 100 μM, 8 hrs
Source text: Human epidermal squamous cell carcinoma-9 (SCC-9) cells and Madin Darby canine kidney cells (MDCK, strain II) were obtained from the ATCC. […] Apoptosis may be quantified in terms of percent solubilized DNA (Wang et al, 2004a), or by using the commercial cell-death detection ELISA kit (Roche Applied Science, Nutley, N.J.) (Feng et al, 2006). […] The sequences of the 20-mer ASO that would hybridize to the coding region of exon 7 (nt 724-741), and the RCO were as follows: […] In the RCO, the antisense sequence was randomly replaced with adenine and thymine residues so that the oligonucleotides had the same length (20-mer) and GC content (33%) as the ASO.

[2] = test system: mouse wild-type normal keratinocytes; experiment: DNA synthesis ([3H]-thymidine incorporation) in mouse wild-type normal keratinocytes; assay type: cell-based; conditions: BzATP 100 μM 8 hours; oligonucleotides 100 μM 14 hours
Procedure: FIG. 20 presents exemplary data showing the effects of pre-treatment with anti-sense P2X7 oligonucleotides (ASO) or random-control P2X7 oligonucleotides (RCO) (both at 100 μM for 14 hours), and of treatments with BzATP (100 μM, 8 hours) on [^3H]-thymidine incorporation in mouse wild-type normal keratinocytes (values are means±SD, n=4).
Changes in DNA synthesis were determined in terms of [^3H]-thymidine incorporation as described Wang et al., “EGF facilitates epinephrine inhibition of P2X7-receptor mediated pore formation and apoptosis: a novel signaling network” Endocrinology 2005, 146:164-174. The radioactivity (dpm/mg Protein, determined by Bio-Rad Protein Assay solution [Hercules, Calif.]) of triplicated samples was determined by beta scintillation counting (Beckman LS1801 scintillation counter).

[3] = test system: cancer ectocervical, endocervical, endometrial cells and cancer keratinocytes; conditions: fold lesser apoptosis after BzATP; cited from earlier work
P2X7 receptor = conditions: cited from earlier work
[4] = test system: mouse wild-type keratinocytes; experiment: Cytosolic calcium (Fluo-4) in mouse wild-type keratinocytes; assay type: cell-based
Procedure: FIG. 17A: Time course of changes in cytosolic calcium (ΔCa^2+i), in medium containing 1.2 mM Ca^2+ (upper trace) or 1.2 mM Ca2+ plus 1.2 mM EGTA (lower trace).
(§1) FIG. 17C: Dose response profile comparison between ΔCa^2+i and Eth-Br influx. Cells were treated with each BzATP concentration for […]. Levels of ΔCa^2+i (empty circles) were determined 2 min after adding BzATP; changes in Eth-Br fluorescence (filled circles) were determined 5 min after adding BzATP. Values=means±SD. Experiments were repeated 3 times. AU=arbitrary units.
(§2) Changes in Ca^2+i in cultured cells were determined in terms of changes in intracellular Fluo-4 fluorescence using dynamic confocal laser scanning microscopy. Cultured mouse keratinocytes were loaded with 5 μM Fluo-4/AM, and imaged with a Zeiss LSM 510 inverted real-time confocal microscope. Images were collected at 488 nm/505 nm (exc/emi) at intervals of 10 to 15 seconds after treatment with 100 μM BzATP, added to the perfusate. For ethidium bromide influx experiments, glass-bottomed dishes cultured with mouse keratinocytes were placed in the microscope. Images (collected at 488 nm/505 nm [exc/emi]) were taken before, and at intervals of 30 seconds after adding 5 μM ethidium bromide to the perfusate as described. Average fluorescence intensity was quantified from collated images using MetaVue software (Fryer Company Inc., Huntley, Ill.) by subtracting the basal intensity value.

[5] = biological target: T1, human full-length P2X7 receptor (N-Myc-hP2X7-MDCK cells) (Homo sapiens, UniProt Q99572); experiment: Apoptosis and P2X7 expression in N-Myc-hP2X7-MDCK cells; assay type: cell-based; conditions: BzATP 100 μM, 8 hrs
T1 construct: MDCK cells heterologously expressing the human full-length P2X7 receptor tagged with N-Myc at the N-terminus; expressed in transfected cells; host or cells: MDCK (strain II) cells expressing tetracycline-regulated repressor
T1 sequence (Q99572 1-595): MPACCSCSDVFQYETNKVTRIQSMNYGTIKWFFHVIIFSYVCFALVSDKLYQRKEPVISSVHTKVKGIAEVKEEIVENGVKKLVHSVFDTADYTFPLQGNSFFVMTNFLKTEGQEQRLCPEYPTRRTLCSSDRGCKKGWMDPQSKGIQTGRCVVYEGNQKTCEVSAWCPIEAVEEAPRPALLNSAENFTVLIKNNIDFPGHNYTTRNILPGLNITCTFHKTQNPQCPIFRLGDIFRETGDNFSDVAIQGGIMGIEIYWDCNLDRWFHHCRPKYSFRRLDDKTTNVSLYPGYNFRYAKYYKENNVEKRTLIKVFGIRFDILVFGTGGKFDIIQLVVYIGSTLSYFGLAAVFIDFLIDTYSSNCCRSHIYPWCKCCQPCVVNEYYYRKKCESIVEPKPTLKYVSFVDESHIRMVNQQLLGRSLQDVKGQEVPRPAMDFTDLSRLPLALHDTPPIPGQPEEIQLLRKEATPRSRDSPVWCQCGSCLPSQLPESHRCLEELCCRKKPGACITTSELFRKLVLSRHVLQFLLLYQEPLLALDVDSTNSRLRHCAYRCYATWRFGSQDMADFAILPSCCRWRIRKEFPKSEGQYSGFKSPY

[6] = test system: mouse wild-type normal keratinocytes; experiment: Apoptosis in cultured mouse wild-type keratinocytes; assay type: cell-based; conditions: 8 hours
P2X7 pores = experiment: Ethidium bromide influx (P2X7 pore formation) in mouse wild-type keratinocytes; assay type: cell-based
Procedure: FIG. 17B: Time course of influx of ethidium bromide (Eth-Br).
as §1, §2

SMILES: Nc1ncnc2c1ncn2[C@@H]1O[C@H](COP(=O)(O)OP(=O)(O)OP(=O)(O)O)[C@@H](OC(=O)c2ccc(C(=O)c3ccccc3)cc2)[C@H]1O [BzATP, 3′-O-(4-benzoylbenzoyl)adenosine triphosphate]
- effect of BzATP on apoptosis (HeLa cells): no significant effect
- combined pro-apoptotic effect of BzATP with ATP [1]: non-additive
- BzATP-induced apoptosis (WT-MDCK cells): did not induce apoptosis
- effect on [3H]-thymidine incorporation [2]: no significant effect
- apoptosis in cancer cells relative to the respective normal cells [3]: 2-5 fold
- EC50 (P2X7 receptor): 35 µM
- potency at the P2X7 receptor relative to ATP (P2X7 receptor; greater potency than ATP): 5-10 fold
- concentration of pre-maximal response, cytosolic calcium [4]: 100 to 250 µM
- threshold concentration, cytosolic calcium [4]: 50 to 100 nM
- change in cytosolic calcium ([4]; 100 μM BzATP, 1.2 mM Ca^2+): acute increase in cytosolic calcium
- duration of increase in cytosolic calcium ([4]; 100 μM BzATP, 1.2 mM Ca^2+): at least 6 minutes
- augmentation of apoptosis [5]: 2.5 fold
- concentration of maximal apoptosis effect [6]: 100 to 250 µM
- lowest BzATP level at which apoptosis effects began [6]: 50 nM
- EC50 ([6]; Mus musculus, Keratinocyte, read-out: estimated EC50 of apoptosis augmentation): ~10 µM
- concentration of pre-maximal response, ethidium bromide influx (P2X7 pores): 100 to 250 µM
- onset of pore formation and augmented calcium influx after adding BzATP (P2X7 pores): 30 to 60 s
- threshold concentration, ethidium bromide influx (P2X7 pores): 50 to 100 nM
- influx of ethidium bromide (P2X7 pores; 100 μM BzATP): acute increase in the influx of ethidium bromide
